≈ marks a conversion by molar mass, not a printed value.
What was measured:
[1] = Solubility assessment in aqueous media; format: physicochemical; settings: kinetic from dmso stock, 25° C.
Description: Preparation of stock solutions: The stock solutions of test compounds and control compound diclofenac were prepared in DMSO at the concentrations of 10 mM.
Procedure for solubility determination: 15 µL of stock solution (10 mM) of each sample was placed in order into their proper 96-well rack. 485 µL of (SIF, SGF, PBS 7.4, FESSIF, or FESSGF) was added into each vial of the cap-less Solubility Sample plate. The assay was performed in duplicate. Add one stir stick to each vial and seal using a molded PTFE/Silicone plug. […] After completion of the 2 hours, plugs were removed and the stir sticks were removed using a big magnet, the samples from the Solubility Sample plate were transferred into the filter plate. Using the Vacuum Manifold, all the samples were filtered. Aliquot of 5 µL and 5 µL DMSO were taken from the filtrate followed by addition of 490 µL of a mixture of H2O and acetonitrile containing internal standard (1:1). A certain proportion of ultrapure water was used to dilute the diluent according to the peak shape. The dilution factor was changed according to the solubility values and the LC-MS signal response.
Preparation of 300 µM standards (STD): From the 10 mM DMSO STD plate, 6 µL was transferred into the remaining empty plate, and then 194 µL of DMSO was added to that plate to have a STD concentration of 300 µM. From the 300 µM DMSO STD plate, 5 µL DMSO STD and 5 µL SIF was transferred into the remaining empty plate, and then 490 µL of a mixture of H2O and acetonitrile containing internal standard (1:1) was added to that plate to have a final STD concentration of 3 µM. […]
Procedure for sample analysis: The plate was placed into the well plate autosampler. The samples were evaluated by LC-MS/MS analysis.
Data analysis: All calculations were carried out using Microsoft Excel. The filtrate was analyzed and quantified against a standard of known concentration using LC coupled with mass spectral peak identification and quantitation. Solubility values of the test compound and control compound were calculated as follows: […]

M14 = assay: NCI COMPARE panel (SRB growth inhibition), M14; format: cell-based; settings: Homo sapiens; Melanoma, M14, 48 h
Description: (§1) The human tumor cell lines of the cancer screening panel are grown in RPMI 1640 medium containing 5% fetal bovine serum and 2 mM L-glutamine. For a typical screening experiment, cells are inoculated into 96 well microtiter plates in 100 µL at plating densities ranging from 5,000 to 40,000 cells/well depending on the doubling time of individual cell lines. After cell inoculation, the microtiter plates are incubated at 37° C., 5% CO2, 95% air and 100% relative humidity for 24 h prior to addition of experimental drugs.
(§2) After 24 h, two plates of each cell line are fixed in situ with TCA, to represent a measurement of the cell population for each cell line at the time of drug addition (Tz). Experimental drugs are solubilized in dimethyl sulfoxide at 400-fold the desired final maximum test concentration and stored frozen prior to use. […]
(§3) Following drug addition, the plates are incubated for an additional 48 h at 37° C., 5 % CO2, 95% air, and 100% relative humidity. […] Bound stain is subsequently solubilized with 10 mM trizma base, and the absorbance is read on an automated plate reader at a wavelength of 515 nm. […] Using the seven absorbance measurements [time zero, (Tz), control growth, (C), and test growth in the presence of drug at the five concentration levels (Ti)], the percentage growth is calculated at each of the drug concentrations levels. Percentage growth inhibition is calculated as: […]

U251 = assay: NCI COMPARE panel (SRB growth inhibition), U251; format: cell-based; settings: Homo sapiens, U-251; CNS Cancer, U251, 48 h
Description: as §1, §2, §3

CAKI-1 = assay: NCI COMPARE panel (SRB growth inhibition), CAKI-1; format: cell-based; settings: Homo sapiens; Renal Cancer, CAKI-1, 48 h
Description: as §1, §2, §3

CS(=O)(=O)Nc1cc(-c2ccc3ncnc(Nc4cccc(Cl)c4F)c3c2)cnc1Cl [Compound 6, N-[2-chloro-5-[4-(3-chloro-2-fluoro-anilino)quinazolin-6-yl]-3-pyridyl] methanesulfonamide]
solubility at 2 h ([1]; PBS pH 7.4, aqueous buffer, pH 7.4 Buffer): 5 to 100 µM (≈ 2.39 to 47.8 µg/mL)
solubility at 2 h ([1]; fassgf or other biorelevant, Simulated Intestinal Fluid (SIF)): 5 to 100 µM (≈ 2.39 to 47.8 µg/mL)
solubility at 2 h ([1]; Simulated Gastric Fluid (SGF)): > 200 µM
GI50 (M14): 125 to 250 nM
GI50 (U251): > 250 nM
GI50 (CAKI-1): ≤ 75 nM

CS(=O)(=O)Nc1cc(-c2ccc3ncc(C#N)c(Nc4cccc(Cl)c4F)c3c2)cnc1Cl [Compound 10, N-[2-chloro-5-[4-(3-chloro-2-fluoro-anilino)-3-cyano-6-quinolyl]-3-pyridyl]methanesulfonamide]
GI50 (M14): > 250 nM
GI50 (U251): ≤ 75 nM
GI50 (CAKI-1): ≤ 75 nM
